Data as given in patent US20180236089A1, “RADIATION EMITTING PEPTIDE NUCLEIC ACID CONJUGATES AND USES THEREOF FOR DIAGNOSIS, IMAGING, AND TREATMENT OF DISEASES, CONDITIONS AND DISORDERS” (Yissum Research Development Company of the Hebrew …, priority 2015, published 2018).
“And” between values parts separate entries of the source, which are not always exact repeats. Identical values can stand only once. Where no end group is shown, it is not given here. [ ]: non-standard residue; d: D form. BisQ = dye (BisQ) placed in the PNA in place of a base

Key:
[1] = UV-Vis absorption of BisQ, TO and PNA FIT probes, alone or hybridized to DNA; assay type: physicochemical; settings: for λmaxabs: UV-Vis spectrum, maximal absorption
Panc-1 cells = test: Hybridization and imaging in living cells (confocal microscopy), Panc-1; assay type: cell-based, human; settings: Panc-1 expressing mutated KRAS, 0.5 μM, 3 hours
Procedure: (§1) Three cell lines were used: Panc-1, BxPC-3 (human pancreatic carcinoma, epithelial-like), and HT-29 (human colon adenocarcinoma grade II). Cell lines were purchased from the American Type Culture Collection (ATCC, Manassas, Va., USA). Panc-1 and HT-29 expressing mutated and wild type KRAS, respectively, were cultured (37° C., 5% CO2), in DMEM medium and supplemented with 10% fetal calf serum, 2 mM L-glutamine, and 0.1 mg/mL Streptomycin (Beit Haemek Biological Industries, Israel). BxPC-3 cells expressing wild type KRAS were cultured in RPMI 1640 medium supplemented with 10% fetal calf serum, 2 mM L-glutamine, and 0.1 mg/mL Streptomycin.
(§2) Twenty four hours prior to PNA addition, Panc-1, HT-29, and BxPC-3 were plated separately on chamber slides (Ibidi GmbH, Munich, Germany) until reaching 70-80% confluence.
(§3) Before adding the PNAs, the medium was replaced and the cells were incubated (37° C., humidified atmosphere containing 5% CO2) with 0.5 μM of PNA1 and PNA2 in complete medium. Cells were washed with PBS (×3) prior to cell imaging and the intracellular fluorescence was measured after 3 hours by confocal microscopy. Design and synthesis of a new surrogate base (BisQ) with the unique feature of far-red emission. BisQ was introduced into PNAs that targets the mutated kRAS oncogene.

HT-29 cells = test: Hybridization and imaging in living cells (confocal microscopy), HT-29; assay type: cell-based, human; settings: HT-29 expressing wild type KRAS, 0.5 μM, 3 hours
Procedure: as §1, §2, §3

BxPC-3 cells = test: Hybridization and imaging in living cells (confocal microscopy), BxPC-3; assay type: cell-based, human; settings: BxPC-3 expressing wild type KRAS, 0.5 μM, 3 hours
Procedure: as §1, §2, §3

Compound | εmax [1] | λmaxabs [1] | intracellular red fluorescence (Panc-1 cells) | intracellular red fluorescence (HT-29 cells) | intracellular red fluorescence (BxPC-3 cells)
CN1C(=Cc2cc[n+](C)c3ccccc23)Sc2ccccc21 [TO, thiazole orange, reference compound] | 43,000 M^−1cm^−1 | 505 nm | – | – | –
(D-Lys)4-CCTCGACT[BisQ]CCGCATCC-NH2 (chain 1 [dK][dK][dK][dK]CCTCGACT-BisQ; numbers in words are those of the source; cysteine pairing not given here; also: PNA (peptide nucleic acid), BisQ joins chain 1 and chain 2 within one strand) [PNA2, BisQ paired with T; PNA FIT probe targeting mutated KRAS] | 82,219 M^−1cm^−1 | 593 nm | red emission solely in Panc-1 cells | red emission solely in Panc-1 cells | red emission solely in Panc-1 cells
(D-Lys)4-CCTCGA[BisQ]TACCGCATCC-NH2 (chemistry not fully specified) [PNA1, BisQ paired with G; PNA FIT probe targeting mutated KRAS] | 83,000 M^−1cm^−1 | 591 nm and 588 nm | – | – | –
Fmoc-Aeg(Dy)-OH [BisQ] | 41,370 M^−1cm^−1 | 591 nm | – | – | –
